Holding throughout (assay type): cell-based, human
In assay [1] the test system is DMSO-differentiated HL-60 cells. The assay can be described thus: Energy use by DMSO-differentiated HL-60 cells. How it is done:
In this Example, methods for testing in vitro-differentiated cells for their ability to use multiple energy sources are described. Prior to differentiation, HL-60 cells were cultured as described in Example 27. DMSO-induced differentiation (Odani et al., Res. Commun. Mol. Pathol. Pharmacol. 108:381-391 [2000]; and Yamaguchi et al., Biol. Pharm. Bull. 20:943-947 [1997]) was accomplished by incubation of the cells in the presence of 1.25% DMSO for 3 days.
After washing, HL-60 cells were resuspended in DME-R. An aliquot of the cell suspension was counted by trypan blue exclusion and the cell density was adjusted to 6.67×10^5/mL. Fifty μL of DME-R were added to each well of the appropriate number of half area, 96-well plates, followed by 25 μL of the appropriate dilution of each test energy source. Stocks of 133 mM of each test chemical were prepared in tissue culture grade water, sterile filtered, and dilutions were prepared in a master plate so that, upon dilution into a half-area 96-well microtiter plate to a total well volume of 150 μL, the final concentrations would be 0.033 to 20 mM. Negative control wells received 25 μL of tissue culture grade water. The cells were plated at a volume of 75 μL/well, giving a final cell density of 5×10^4/well. For each plate containing energy sources and cells, a second, control plate containing only energy sources was prepared with the same total volume of liquid (148 μL/well). Plates were incubated at 5% CO2, 90-100% humidity, and 37° C. for 24 hours prior to addition of the MTS/MPMS calorimetric reagent (7.5 μL/well). The color formed in each well 24 hours after addition of the colorimetric reagent, was measured with a plate reader at 490 nm with a reference wavelength of 650 nm. OD values from the control plate were subtracted from the OD values obtained with cells prior to normalizing the data to % negative control (cells without added energy source).

Assay [2] relates to HL-60 cells. The assay is described as follows: HL-60 responses to selected compounds at a range of concentrations. How it is done: In this Example, methods for testing unattached cells for their ability to use various concentrations of selected carbon sources are described. The carbon sources used in this Example were identified by the methods disclosed in Example 27. Similarly, HL-60 cells were cultured as described in Example 27.
After washing, HL-60 cells were resuspended in DME-R. An aliquot of the cell suspension was counted by trypan blue exclusion and the cell density was adjusted to 6.67×10^5/mL. Fifty μL of DME-R were added to each well of the appropriate number of half area, 96-well plates, followed by 23 μL of the appropriate dilution of each test energy source. Stocks of 133 mM of each test chemical were prepared in tissue culture grade water, sterile filtered, and dilutions were prepared in a master plate so that, upon dilution in a total volume of 150 μL, the final concentrations would be 0.033 to 20 mM. Negative control wells received 23 μL of tissue culture grade water. The cells were plated at a volume of 75 μL/well, giving a final cell density of 5×10^4/well. For each plate containing energy sources and cells, a second, control plate containing only energy sources was prepared. Plates were incubated at 5% CO2, 90-100% humidity, and 37° C. for 24 hours prior to addition of the MTS/MPMS colorometric reagent (7.5 μL/well). The color formed in each well after an additional 24 hour incubation period, was measured on a plate reader at 490 nm with a reference wavelength of 650 nm. OD values from the control plate were subtracted from the OD values obtained with cells prior to normalizing the data to % negative control (cells without added energy source).

The subject of assay [3] is HL-60 cells. The assay can be described thus: Effect of 10 mM citric acid on HL-60 energy utilization. The settings on record: negative control without energy sources and without citric acid.
Where [4] appears, read: energy source 0.03 mM with 10 mM citric acid.
Setting [5] is: energy source 0.10 mM with 10 mM citric acid.
[6] abbreviates: energy source 0.33 mM with 10 mM citric acid.
Where [7] appears, read: energy source 1.00 mM with 10 mM citric acid.
Setting [8] is: energy source 3.3 mM with 10 mM citric acid.
[9] abbreviates: energy source 10 mM with 10 mM citric acid.
[10] abbreviates: energy source 15 mM with 10 mM citric acid.
[11] abbreviates: energy source 20 mM with 10 mM citric acid.

For the molecule `O=C1O[C@@H]([C@H](O)CO)[C@H](O)[C@H]1O` [D-gal acid g-lactone], the “Energy Use by DMSO-Differentiated HL-60 Cells” value is on record as 111.9 % of negative control in assay [1] (Conc. 0.03 mM); 122.9 % of negative control in assay [1] (Conc. 0.10 mM); 133.3 % of negative control in assay [1] (Conc. 0.33 mM); 157.1 % of negative control in assay [1] (Conc. 1.00 mM); 185.9 % of negative control in assay [1] (Conc. 3.3 mM); 166.9 % of negative control in assay [1] (Conc. 10 mM). Further, the “Energy Use by DMSO-Differentiated HL-60 Cells” value in assay [1] (Conc. 15 mM) is on record as 130.4 % of negative control; in assay [1] (Conc. 20 mM) it was 99.2 % of negative control. Moreover, the “HL-60 Cell Responses to Selected Compounds from PM1 and PM2” value is listed as 128.3 % of negative control with HL-60 cells [2] (Conc. 0.03 mM); 128.7 % of negative control with HL-60 cells [2] (Conc. 0.10 mM); 129.3 % of negative control in the assay on HL-60 cells [2] (Conc. 0.33 mM); 141.4 % of negative control with HL-60 cells [2] (Conc. 1.00 mM); 142.2 % of negative control in the assay on HL-60 cells [2] (Conc. 3.3 mM); 127.1 % of negative control in the assay with HL-60 cells [2] (Conc. 10 mM). The results for the “HL-60 Cell Responses to Selected Compounds from PM1 and PM2” value in the assay on HL-60 cells [2] (Conc. 15 mM) and in the assay with HL-60 cells [2] (Conc. 20 mM) were 122.2 % of negative control and 93.9 % of negative control, respectively. Further, the “Effect of 10 mM Citric Acid on HL-60 Energy Utilization” value (shortened to “Effect of 10 mM Citric Acid”) in the assay on HL-60 cells [3] (setting [4]) is 9.5 % of negative control; in the assay with HL-60 cells [3] (setting [5]), 20.9 % of negative control; in the assay on HL-60 cells [3] (setting [6]), 35.7 % of negative control; in the assay with HL-60 cells [3] (setting [7]), 63.3 % of negative control; with HL-60 cells [3] (setting [8]), 162.8 % of negative control; in the assay with HL-60 cells [3] (setting [9]), 151.5 % of negative control. The “Effect of 10 mM Citric Acid” value in the assay with HL-60 cells [3] (setting [10]) was 126.5 % of negative control; in the assay with HL-60 cells [3] (setting [11]) it was 115.7 % of negative control.
On to `O=C1O[C@H]([C@@H](O)CO)[C@@H](O)[C@@H]1O` [L-gal acid g-lactone], for which the “Energy Use by DMSO-Differentiated HL-60 Cells” value in assay [1] (Conc. 0.03 mM) is given as 113.9 % of negative control; in assay [1] (Conc. 0.10 mM), 129.2 % of negative control; in assay [1] (Conc. 0.33 mM) it was 137.5 % of negative control; in assay [1] (Conc. 1.00 mM), 155.4 % of negative control; in assay [1] (Conc. 3.3 mM) it was 178.2 % of negative control; in assay [1] (Conc. 10 mM) it was 171.1 % of negative control. Further, the “Energy Use by DMSO-Differentiated HL-60 Cells” value is listed as 131.1 % of negative control in assay [1] (Conc. 15 mM) and 98.1 % of negative control in assay [1] (Conc. 20 mM). The “HL-60 Cell Responses to Selected Compounds from PM1 and PM2” value in the assay with HL-60 cells [2] (Conc. 0.03 mM) was 129.3 % of negative control; with HL-60 cells [2] (Conc. 0.10 mM), 132.3 % of negative control; in the assay with HL-60 cells [2] (Conc. 0.33 mM), 132.4 % of negative control; in the assay with HL-60 cells [2] (Conc. 1.00 mM), 145.0 % of negative control; with HL-60 cells [2] (Conc. 3.3 mM), 141.5 % of negative control; in the assay with HL-60 cells [2] (Conc. 10 mM), 122.8 % of negative control. The “HL-60 Cell Responses to Selected Compounds from PM1 and PM2” value is recorded as 125.0 % of negative control in the assay on HL-60 cells [2] (Conc. 15 mM) and 100.4 % of negative control in the assay on HL-60 cells [2] (Conc. 20 mM). The “Effect of 10 mM Citric Acid” value is reported as 16.2 % of negative control with HL-60 cells [3] (setting [4]); 18.2 % of negative control in the assay with HL-60 cells [3] (setting [5]); 19.7 % of negative control in the assay on HL-60 cells [3] (setting [6]); 38.6 % of negative control with HL-60 cells [3] (setting [7]); 188.9 % of negative control in the assay with HL-60 cells [3] (setting [8]); 138.4 % of negative control with HL-60 cells [3] (setting [9]). In addition, the “Effect of 10 mM Citric Acid” value with HL-60 cells [3] (setting [10]) is recorded as 122.4 % of negative control; in the assay on HL-60 cells [3] (setting [11]), 111.5 % of negative control.
Regarding `N[C@@H](Cc1c[nH]cn1)C(=O)O` [L-histidine], the activity at 30 µM came out at 119% in assay [1] (Homo sapiens, HL-60, 24 h, Conc. 0.03 mM, read-out: Energy Use by DMSO-Differentiated HL-60 Cells); 123% in the assay with HL-60 cells [2] (Homo sapiens, HL-60, Conc. 0.03 mM, read-out: HL-60 Cell Responses to Selected Compounds from PM1 and PM2). Further, the activity at 100 µM in assay [1] (Homo sapiens, HL-60, 24 h, Conc. 0.10 mM, read-out: Energy Use by DMSO-Differentiated HL-60 Cells) came out at 123%; in the assay on HL-60 cells [2] (Homo sapiens, HL-60, Conc. 0.10 mM, read-out: HL-60 Cell Responses to Selected Compounds from PM1 and PM2), 121%. Also, the activity at 330 µM was 128% in assay [1] (Homo sapiens, HL-60, 24 h, Conc. 0.33 mM, read-out: Energy Use by DMSO-Differentiated HL-60 Cells); 128% with HL-60 cells [2] (Homo sapiens, HL-60, Conc. 0.33 mM, read-out: HL-60 Cell Responses to Selected Compounds from PM1 and PM2). Also, the activity at 1000 µM in assay [1] (Homo sapiens, HL-60, 24 h, Conc. 1.00 mM, read-out: Energy Use by DMSO-Differentiated HL-60 Cells) amounted to 157%; with HL-60 cells [2] (Homo sapiens, HL-60, Conc. 1.00 mM, read-out: HL-60 Cell Responses to Selected Compounds from PM1 and PM2) it was 135%. Further, the activity at 3300 µM in assay [1] (Homo sapiens, HL-60, 24 h, Conc. 3.3 mM, read-out: Energy Use by DMSO-Differentiated HL-60 Cells) was 172%; in the assay with HL-60 cells [2] (Homo sapiens, HL-60, Conc. 3.3 mM, read-out: HL-60 Cell Responses to Selected Compounds from PM1 and PM2), 146%. Also, the activity at 10000 µM in assay [1] (Homo sapiens, HL-60, 24 h, Conc. 10 mM, read-out: Energy Use by DMSO-Differentiated HL-60 Cells) amounted to 171%; with HL-60 cells [2] (Homo sapiens, HL-60, Conc. 10 mM, read-out: HL-60 Cell Responses to Selected Compounds from PM1 and PM2), 120%. The activity at 15000 µM in assay [1] (Homo sapiens, HL-60, 24 h, Conc. 15 mM, read-out: Energy Use by DMSO-Differentiated HL-60 Cells) turned out to be 140%; in the assay on HL-60 cells [2] (Homo sapiens, HL-60, Conc. 15 mM, read-out: HL-60 Cell Responses to Selected Compounds from PM1 and PM2) it was 123%. In addition, the activity at 20000 µM in assay [1] (Homo sapiens, HL-60, 24 h, Conc. 20 mM, read-out: Energy Use by DMSO-Differentiated HL-60 Cells) came out at 114%; in the assay on HL-60 cells [2] (Homo sapiens, HL-60, Conc. 20 mM, read-out: HL-60 Cell Responses to Selected Compounds from PM1 and PM2) it was 95%.

The values are drawn from patent US9274101B2 (BIOLOG, Inc., priority 2001, dated 2016).
